For orientation: melting point means the temperature of the solid-liquid transition. As to `Cc1cnn2c(-c3cccc(-c4ccccc4C#N)c3)cnc2c1`, the melting point was 164 to 166 °C.

The values above are taken from patent US7226922B2 (dated 2007).
